Molecules are shown by their SMILES. Counter-ions that a name gives are not always drawn. Where only a bound is given, the exact number is not on record here.

These results are taken from US8901307B2, “Chemical compounds 251” (AstraZeneca AB, priority 2008, dated 2014).

The target of one test is T1, human His-PIM1 [2-313] (Homo sapiens, UniProt P11309).
T1 construct: purified human His-PIM1 [2-313] enzyme; His (N); purchased University of Dundee, Scotland; host or cells: baculovirus system
Kind of test: PIM1 in-vitro mobility shift assay (Caliper LC3000, FL-Ahx-Bad phosphorylation). The note with it: 1.5 h; percent inhibition at 0.3 uM compound; read-out: PIM1 % I at 0.3 uM. It is filed as biochemical. From the text:
PIM1 In-Vitro Mobility Shift Assay
One may determine the activity of purified human His-PIM1 [2-313] enzyme in-vitro using a mobility shift assay on a Caliper LC3000 reader (Caliper, Mass.), which measures fluorescence of a phosphorylated and unphosphorylated FL-Ahx-Bad (FITC-(AHX)RSRHSSYPAGT-COOH, Primm 200606-00289, Primm Biotech, Mass.) and calculates a ratiometric value to determine percent turnover. One may express PIM1 (University of Dundee, Scotland) in baculovirus system with a typical yield of >85% purity.
(§1) One determines phosphorylation of the FL-Ahx-Bad in the presence and absence of the compound of interest. One preincubates 5 µl of Enzyme/Substrate/adenosine triphosphate (ATP) mix consisting of 2.4 nM PIM1, 3.6 uM FL-Ahx-Bad, and 240 uM ATP in 1.2× buffer with 2 ul of compound for 20 minutes at 25° C. One initiates reactions with 5 ul of Metal mix consisting of 24 mM MgCl2 in 1.2× buffer and incubated at 25° C. for 90 minutes and stops the reactions by addition of 5 ul of Stop mix consisting of 100 mM HEPES, 121 mM ethylenediamine tetraacetic acid, 0.8% Coatin Reagent 3 (Caliper, Mass.), and 0.01% Tween. One detects phosphorylated and unphosphorylated substrate by a Caliper LC3000 reader (Caliper, Mass.) in the presence of separation buffer consisting of 100 mM HEPES, 16 mM ethylenediamine tetraacetic acid, 0.1% Coatin Reagent 3 (Caliper, Mass.), 0.015% Brij-35, 5% DMSO, and 5.6 mM MgCl2. One may use the following separation conditions for a Caliper LC3000: −1.0 PSI, −2000 V upstream voltage, −400 V downstream voltage, 0.2 second sample sip, 45 second post sip, 10% laser strength.
The table 1 below provides the percent inhibition of PIM1 at 0.3 micromolar for Examples provided herein. Several examples were tested more than once. Variations in the experimental outcomes, negative values, or values over 100% inhibition are presumably due to experimental error inherent in the assay.

The target in a further test is T2, human His-PIM2 [23-299] (Homo sapiens, UniProt Q9P1W9).
T2 construct: purified human His-PIM2 [23-299] enzyme; His (N); host or cells: E. coli
T2 sequence (Q9P1W9 23-299): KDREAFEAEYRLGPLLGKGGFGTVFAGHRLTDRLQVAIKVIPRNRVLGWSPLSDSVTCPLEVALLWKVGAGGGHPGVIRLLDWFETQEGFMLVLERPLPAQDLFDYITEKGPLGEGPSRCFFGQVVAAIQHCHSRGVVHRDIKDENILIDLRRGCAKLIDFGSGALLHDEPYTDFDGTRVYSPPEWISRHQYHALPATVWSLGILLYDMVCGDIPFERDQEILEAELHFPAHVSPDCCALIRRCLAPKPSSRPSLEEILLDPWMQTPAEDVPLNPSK
Briefly: PIM2 in-vitro mobility shift assay (Caliper LC3000, FL-Ahx-Bad phosphorylation). The note with it: 1.5 h; percent inhibition at 0.3 uM compound; read-out: PIM2 % I at 0.3 uM. The test is classed as biochemical.
Description: PIM2 In-Vitro Mobility Shift Assay
One may determine the activity of purified human His-PIM2 [23-299] enzyme in-vitro using a mobility shift assay on a Caliper LC3000 reader (Caliper, Mass.), which measures fluorescence of a phosphorylated and unphosphorylated FL-Ahx-Bad (FITC-(AHX)RSRHSSYPAGT-COOH, Primm 200606-00289, Primm Biotech, Mass.) and calculates a ratiometric value to determine percent turnover. One may express PIM2 (produced at AstraZeneca, R&D Boston) in E. coli cells with a typical yield of >90% purity.
as §1, with “5 uL” for “5 µl”, “and 12” for “and 240”, “5 uL” for “5 ul”, “and incubates” for “and incubated”, “90 minutes. One” for “90 minutes and”, “stops” for “stops the”

T1 sequence (P11309 2-313): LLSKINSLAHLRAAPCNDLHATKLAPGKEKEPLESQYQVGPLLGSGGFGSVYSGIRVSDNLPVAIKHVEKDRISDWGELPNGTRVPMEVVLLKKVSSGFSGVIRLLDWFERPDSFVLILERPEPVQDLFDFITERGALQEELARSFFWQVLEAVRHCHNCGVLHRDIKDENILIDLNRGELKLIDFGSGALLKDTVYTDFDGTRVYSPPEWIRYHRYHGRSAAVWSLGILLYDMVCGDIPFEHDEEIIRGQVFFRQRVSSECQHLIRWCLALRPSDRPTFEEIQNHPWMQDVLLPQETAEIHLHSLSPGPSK

Take `COc1cccc(/C=C2\SC(=O)NC2=O)c1N1CC[C@H](N(C)C)C1` [Example 36, (S,Z)-5-(2-(3-(dimethylamino)pyrrolidin-1-yl)-3-methoxybenzylidene)thiazolidine-2,4-dione]: the inhibition at 0.3 µM on human His-PIM1 [2-313] and at human His-PIM2 [23-299] was > 95% in each case.

For the compound `COc1cc(/C=C2\SC(=O)NC2=O)ccc1OCCN1CCCCC1` [Example 59, (Z)-5-(3-methoxy-4-(2-(piperidin-1-yl)ethoxy)benzylidene)thiazolidine-2,4-dione], the inhibition at 0.3 µM on human His-PIM1 [2-313] was < 5%; on human His-PIM2 [23-299], 6.6%.

`N[C@@H]1CCCN(c2c(/C=C3\SC(=O)NC3=O)cccc2OC2CCCC2)C1` [Example 122AC, (R,Z)-5-(2-(3-aminopiperidin-1-yl)-3-(cyclopentyloxy)benzylidene)thiazolidine-2,4-dione hydrochloride]: the inhibition at 0.3 µM on human His-PIM1 [2-313] and at human His-PIM2 [23-299] was > 95% throughout.

`COc1cc(/C=C2\SC(=O)NC2=O)c(N2CCC(NCCN)C2)cc1OC` (centres unmarked) [Example 111, (Z)-5-(2-(3-(2-aminoethylamino)pyrrolidin-1-yl)-4,5-dimethoxybenzylidene)thiazolidine-2,4-dione hydrochloride]: the inhibition at 0.3 µM on human His-PIM1 [2-313] and on human His-PIM2 [23-299] was > 95% in each case.

In the case of `N[C@H]1CCN(c2c(Cl)cc(C(F)(F)F)cc2/C=C2\SC(=O)NC2=O)C1` [Example 5B], the inhibition at 0.3 µM on human His-PIM1 [2-313] and at human His-PIM2 [23-299] was > 95% each time.

With `O=C1NC(=O)/C(=C/c2cccc(Cl)c2N2CCCNCC2)S1` [Example 122N, (Z)-5-(3-chloro-2-(1,4-diazepan-1-yl)benzylidene)thiazolidine-2,4-dione hydrochloride], the inhibition at 0.3 µM on human His-PIM1 [2-313] and at human His-PIM2 [23-299] was > 95% in each case.

With `COc1cc(/C=C2\SC(=O)NC2=O)c(N2CCC(N)C2)cc1OC` (centres unmarked) [Example 118, (5Z)-5-[2-(3-aminopyrrolidin-1-yl)-4,5-dimethoxybenzylidene]-1,3-thiazolidine-2,4-dione hydrochloride], the inhibition at 0.3 µM on human His-PIM1 [2-313] and at human His-PIM2 [23-299] was > 95% in each case.

For `CCN(CC)CCOc1ccc(OC)cc1/C=C1\SC(=O)NC1=O` [Example 63, (Z)-5-(2-(2-(diethylamino)ethoxy)-5-methoxybenzylidene)thiazolidine-2,4-dione], the inhibition at 0.3 µM at human His-PIM1 [2-313] was 79.2%; on human His-PIM2 [23-299] it was 21.5%.

Turning to `COCCOc1cccc(/C=C2\SC(=O)NC2=O)c1N1CCC[C@@H](N)C1` [Example 122AA, (R,Z)-5-(2-(3-aminopiperidin-1-yl)-3-(2-methoxyethoxy)benzylidene)thiazolidine-2,4-dione hydrochloride], the inhibition at 0.3 µM on human His-PIM1 [2-313] and on human His-PIM2 [23-299] was > 95% throughout.

Regarding `CN1CCC(N2CCN(c3c(Cl)cc(C(F)(F)F)cc3/C=C3\SC(=O)NC3=O)CC2)CC1` [Example 19], the values for the inhibition at 0.3 µM on human His-PIM1 [2-313] and on human His-PIM2 [23-299] were > 95% and 38.3%, respectively.

On to `COc1cc(/C=C2\SC(=O)NC2=O)c(-c2ccncc2)cc1OC` [Example 66, (Z)-5-(4,5-dimethoxy-2-(pyridin-4-yl)benzylidene)thiazolidine-2,4-dione], for which the inhibition at 0.3 µM on human His-PIM1 [2-313] turned out to be 50.3%; at human His-PIM2 [23-299], 20.9%.

For the compound `N[C@H]1CCN(c2cc(Cl)ccc2/C=C2\SC(=O)NC2=O)C1` [Example 85, (S,Z)-5-(2-(3-aminopyrrolidin-1-yl)-4-chlorobenzylidene)thiazolidine-2,4-dione hydrochloride], the inhibition at 0.3 µM at human His-PIM1 [2-313] was > 95%; at human His-PIM2 [23-299] it was 82.4%.

As to `O=C1NC(=O)/C(=C/c2ccc3ncccc3c2)S1` [Example 77, (5Z)-5-(quinolin-6-ylmethylene)-1,3-thiazolidine-2,4-dione trifluoroacetate], the inhibition at 0.3 µM at human His-PIM1 [2-313] is 51.2%; on human His-PIM2 [23-299] it was 22.7%.

Take `NCCCC(=O)N1CCN(c2ccccc2/C=C2\SC(=O)NC2=O)CC1` [Example 107, (Z)-5-(2-(4-(4-aminobutanoyl)piperazin-1-yl)benzylidene)thiazolidine-2,4-dione hydrochloride]: the inhibition at 0.3 µM at human His-PIM1 [2-313] and at human His-PIM2 [23-299] was > 95% each time.

In the case of `N[C@H]1CCN(c2c(Cl)cccc2/C=C2\SC(=O)NC2=O)C1` [Example 86, (S,Z)-5-(2-(3-aminopyrrolidin-1-yl)-3-chlorobenzylidene)thiazolidine-2,4-dione hydrochloride], the inhibition at 0.3 µM at human His-PIM1 [2-313] and at human His-PIM2 [23-299] was > 95% each time.

In the case of `O=C1NC(=O)/C(=C/c2cc(C(F)(F)F)cc(Cl)c2N2CCN(CCN3CCOCC3)CC2)S1` [Example 20], the inhibition at 0.3 µM on human His-PIM1 [2-313] turned out to be 86.5%; on human His-PIM2 [23-299], 19.1%.

As for `N[C@@H]1CCCN(c2c(/C=C3\SC(=O)NC3=O)cccc2OC2CCC2)C1` [Example 122AD, (R,Z)-5-(2-(3-aminopiperidin-1-yl)-3-cyclobutoxybenzylidene)thiazolidine-2,4-dione hydrochloride], the inhibition at 0.3 µM at human His-PIM1 [2-313] and at human His-PIM2 [23-299] was > 95% in each case.

With `COc1cc(/C=C2\SC(=O)NC2=O)c(N2CCC(NC(=O)CCN)C2)cc1OC` (centres unmarked) [Example 128], the inhibition at 0.3 µM was found to be 81.2% at human His-PIM1 [2-313] and 49% on human His-PIM2 [23-299].

With `CC(C)N1CCN(c2c(Cl)cc(C(F)(F)F)cc2/C=C2\SC(=O)NC2=O)CC1` [Example 11], the inhibition at 0.3 µM on human His-PIM1 [2-313] came to 89.4%; at human His-PIM2 [23-299], 17.9%.

Consider `CN(C)[C@H]1CCN(c2c(F)cccc2C=C2SC(=O)NC2=O)C1` [Example 84N, (S)-5-(2-(3-(dimethylamino)pyrrolidin-1-yl)-3-fluorobenzylidene)thiazolidine-2,4-dione], for which the figures for the inhibition at 0.3 µM at human His-PIM1 [2-313] and on human His-PIM2 [23-299] were 92.8% and 81.4%, respectively.

Regarding `CNCCN[C@@H]1CCCN(c2c(Cl)cccc2/C=C2\SC(=O)NC2=O)C1` [Example 122S, (R,Z)-5-(3-chloro-2-(3-(2-(methylamino)ethylamino)piperidin-1-yl)benzylidene)thiazolidine-2,4-dione hydrochloride], the inhibition at 0.3 µM at human His-PIM1 [2-313] and on human His-PIM2 [23-299] was > 95% each time.

`O=C1NC(=O)/C(=C/c2cc(C(F)(F)F)cc(Cl)c2N2CCCNCC2)S1` [Example 5A]: the values for the inhibition at 0.3 µM on human His-PIM1 [2-313] and on human His-PIM2 [23-299] were > 95% and 79.9%, respectively.

As for `CC(=O)NCC(=O)N[C@H]1CCN(c2c(Cl)cccc2/C=C2\SC(=O)NC2=O)C1` [Example 147], the inhibition at 0.3 µM on human His-PIM1 [2-313] turned out to be 74.3%; on human His-PIM2 [23-299], 36.4%.

With `CN(C)[C@H]1CCN(c2c(Cl)cccc2/C=C2\SC(=O)NC2=O)C1` [Example 38, (S,Z)-5-(3-chloro-2-(3-(dimethylamino)pyrrolidin-1-yl)benzylidene)thiazolidine-2,4-dione], the inhibition at 0.3 µM at human His-PIM1 [2-313] is > 95%; on human His-PIM2 [23-299], 92.9%.

As for `O=C1NC(=O)/C(=C/c2ccccc2N2CCN(C(=O)C3CNC3)CC2)S1` [Example 117, (5Z)-5-{2-[4-(azetidin-3-ylcarbonyl)piperazin-1-yl]benzylidene}-1,3-thiazolidine-2,4-dione hydrochloride], the inhibition at 0.3 µM on human His-PIM1 [2-313] and at human His-PIM2 [23-299] was > 95% throughout.
